This is an account of results in patent US7094807B2, “Substituted aryl thioureas and related compounds; inhibitors of viral replication” (Achillion Pharmaceuticals, Inc., priority 2002, dated 2006).

The test concerns HCV replicon. The test is described as follows: HCV replicon assay (NPT ELISA in HCV replicon-containing cells). Format: cell-based. Particulars: Hepatitis C virus, 72 h. Here is the method: The compounds claimed herein were tested for the ability to inhibit viral replication of the Hepatitis C replicon in cultured cells in which the HCV replicon construct has been incorporated. The HCV replicon system was described by Bartenschlager, et. al (Science, 285, pp. 110-113 (1999)). The replicon system is predictive of in vivo anti-HCV activity; compounds that are active in humans uniformly evidence activity in the replicon assay.
In this assay HCV replicon containing cells are treated with different concentrations of the test compound to ascertain the ability of the test compound to suppress replication of the HCV replicon. As a positive control, HCV replicon-containing cells are treated with different concentrations of interferon alpha, a known inhibitor of HCV replication. The replicon assay system includes Neomycin Phosphotransferase (NPT) as a component of the replicon itself in order to detect the transcription of replicon gene products in the host cell. Cells in which the HCV replicon is actively replicating have high levels of NPT; the level of NPT is proportional to HCV replication. […] The NPT level of each sample is measured using a captured ELISA.
A protocol for testing compounds for the ability to inhibit viral replication of the Hepatitis C replicon cultured cells in which the replicon construct has been incorporated, follows.
The HCV replicon contains, 5-′3′, the HCV-IRES, the neomycin phosphotransferase (neo) gene, the IRES of encephalomyocarditis virus, which directs translation of HCV sequences NS3 to NS5B, and the 3′-NTR. The sequence of the HCV replicon has been deposited in GenBank (Accession no. AJ242652).
The replicon is transfected into Huh-7 cells using standard methods such as electroporation.
The equipment and materials include, but are not limited to, Huh-7 HCV replicon-containing cells, maintenance media (DMEM (Dulbecco's modified Eagle media) supplemented with 10% FBS, L-glutamine, non-essential amino acids, penicillin (100 units/ml), streptomycin (100 micrograms/ml), and 500 micrograms/ml of Geneticin G418), screening media (DMEM supplemented with 10% FBS, L-glutamine, and non-essential amino acid, penicillin (100 units/ml) and streptomycin (100 micrograms/ml)), 96 well tissue culture plates (flat bottom), 96 well plates (U bottom for drug dilution), Interferon alpha for positive control, fixation reagent (such as methanol: acetone), primary antibody (rabbit anti-NPTII), secondary antibody: Eu-N1 l, and enhancement solution.
HCV replicon-containing cells are rinsed with once PBS once; 2 mls of trypsin is added. Cells are incubated at 37° C. in a 5% CO2 incubator for 3-5 minutes. 10 mls of complete medium is added to stop the reaction. Cells are blown gently, put into a 15 ml tube, and spun at 1200 rpm for four minutes. The trypsin/medium solution is removed and 5 mls of medium (500 ml DMEM (high glucose)) from BRL catalog #12430-054; 50 mls 10% FBS, […] (50 mg/ml, BRL 10131-035), 5 ml MEM non-essential amino acid (100×BRL #11140-050) and 5 ml pen-strep (BRL #15140-148) is added. The cells and media are mixed carefully
Cells are plated with screening medium (500 ml DMEM (BRL #21063-029), 50 ml FBS (BRL #10082-147) and 5 ml MEM non-essential amino acid (BRL #11140-050) at 6000-7500 cells/100 μl/well of 96 well plate (6-7.5×10^5 cells/10 ml/plate). Plates are placed into 37° C. 5% CO2 incubator overnight.
The following morning, drugs (test compounds or interferon alpha) are diluted in 96 well U bottom plates with media or DMSO/media, depending on the final concentration chosen for screening. Generally for 6 concentrations of each test compounds ranging from 10 micromolar to 0.03 micromolar are applied. 100 μl of the test compound dilution is placed in wells of the 96 well plate containing the HCV replicon cells. Media without drug is added to some wells as a negative controls. DMSO is known to affect cell growth. […]
In general terms: Replicon systems follow genome replication, usually without infectious particles.

[1] abbreviates: HCV replicon-containing Huh-7 cells, three days incubation, read-out: EC50 for inhibition of replication of the HCV replicon.

Structures are written as SMILES. Like-named read-outs stand apart in the source and are kept apart here. Some results are limits rather than exact numbers.

`CCCCOC(=O)c1ccc(NC(=S)NC(=O)CSc2ccccc2)cc1` [Compound 36, 4-[3-(2-(Phenylsulfanyl)-acetyl)-thioureido]-benzoic acid butyl ester]: the EC50 is, setting by setting: (read-out: EC50 for inhibition of viral RNA replicon replication in Huh9-13 cells) 2.3 µM; under setting [1], under 30 µM.
As to `O=C(COc1ccccc1)NC(=S)Nc1ccc2c(c1)OCO2` [Compound 37, 1-Benzo[1,3]dioxol-5-yl-3-(2-phenoxy-acetyl)-thiourea], under setting [1], the EC50 was under 30 µM.
Still for that read-out and setting: as for `O=C(COc1ccccc1)N1CCN(c2cccc(OCc3ccccc3)c2)C1=S` [Compound 38], the figure is under 30 µM; as for `O=C(NC(=S)Nc1cccc(OCc2ccccc2)c1)C1Cc2ccccc2O1` (centres unmarked) [Compound 39, 1-(3-Benzyloxy-phenyl)-3-(2,3-dihydro-benzofuran-2-carbonyl)-thiourea], under 30 µM; as for `O=C(NC(=S)Nc1cccc(OCc2ccccc2)c1)C1COc2ccccc2O1` (centres unmarked) [Compound 40, 1-(3-Benzyloxy-phenyl)-3-(2,3-dihydro-benzo[1,4]dioxine-2-carbonyl)-thiourea], under 30 µM.
On the same count and under the same terms, the same measure for `O=C(NC(=S)Nc1cccc(OCc2ccccc2)c1)C1CCc2ccccc2O1` (centres unmarked) [Compound 41, 1-(3-Benzyloxy-phenyl)-3-(chroman-2-carbonyl)-thiourea]: under 30 µM.
Still for that read-out and setting: as for `O=C(NC(=S)Nc1cccc(OCc2ccccc2)c1)c1ccc2ccccc2n1` [Compound 42, 1-(3-Benzyloxy-phenyl)-3-(quinoline-2-carbonyl)-thiourea], the figure is under 30 µM.

In general, EC50 refers to the concentration at which the effect is half-maximal.
